Source: PubChem BioAssay AID1259407 (Chemical Carcinogenesis Research Information System (CCRIS), 2018)
Active and inactive are the calls of the source. The rule behind the calls is not given here.

Tested on: CCRIS mutagenicity, Ames/micronucleus/aberration tests
Assay: CCRIS mutagenicity studies
[1] = Test System: AMES SALMONELLA TYPHIMURIUM, Strain/Indicator: TA104, Metabolic Activation: NONE, Method: STANDARD PLATE
[2] = Test System: AMES SALMONELLA TYPHIMURIUM, Strain/Indicator: TA98, Metabolic Activation: NONE, Method: STANDARD PLATE
[3] = Test System: AMES SALMONELLA TYPHIMURIUM, Strain/Indicator: TA100, Metabolic Activation: NONE, Method: STANDARD PLATE
[4] = Test System: AMES SALMONELLA TYPHIMURIUM, Strain/Indicator: TA98, Metabolic Activation: NONE, Method: PREINCUBATION
[5] = Test System: AMES SALMONELLA TYPHIMURIUM, Strain/Indicator: TA100, Metabolic Activation: NONE, Method: PREINCUBATION
[6] = Test System: AMES SALMONELLA TYPHIMURIUM, Strain/Indicator: TA1535, Metabolic Activation: NONE, Method: PREINCUBATION

CC1(C)CC(C(=O)NC(CO)C(O)CO)C(C)(C)N1[O] (stereo not given)
mutagenic call (Test System: AMES SALMONELLA TYPHIMURIUM, Strain/Indicator: TA102, Metabolic Activation: NONE, Method: STANDARD PLATE): inactive; negative
mutagenic call (Test System: AMES SALMONELLA TYPHIMURIUM, Strain/Indicator: TA102, Metabolic Activation: XANTHINE OXIDASE, Method: STANDARD PLATE): inactive; negative
mutagenic call [1]: inactive; negative
mutagenic call (Test System: AMES SALMONELLA TYPHIMURIUM, Strain/Indicator: TA104, Metabolic Activation: XANTHINE OXIDASE, Method: STANDARD PLATE): inactive; negative
mutagenic call (Test System: CHO, Strain/Indicator: CHO/6-THIOGUANINE, Metabolic Activation: NONE, Method: STANDARD PLATE): inactive; negative
mutagenic call (Test System: CHO, Strain/Indicator: CHO/6-THIOGUANINE, Metabolic Activation: RAT, LIVER, S-9, AROCLOR 1254, Method: STANDARD PLATE): inactive; negative
mutagenic call (Test System: CHO, Strain/Indicator: CHO/OUABAIN, Metabolic Activation: NONE, Method: STANDARD PLATE): inactive; negative
mutagenic call (Test System: CHO, Strain/Indicator: CHO/OUABAIN, Metabolic Activation: RAT, LIVER, S-9, AROCLOR 1254, Method: STANDARD PLATE): inactive; negative

CC(O)C(=O)[O][Al]([O]C(=O)C(C)O)[O]C(=O)C(C)O (stereo not given)
mutagenic call (Test System: AMES SALMONELLA TYPHIMURIUM, Strain/Indicator: TA92, Metabolic Activation: NONE, Method: STANDARD PLATE): inactive; negative
mutagenic call [2]: inactive; negative
mutagenic call [3]: inactive; negative
mutagenic call [1]: inactive; negative

NC(CO)C(=O)NNCc1ccc(O)c(O)c1O (stereo not given)
mutagenic call [3]: active; positive
mutagenic call (Test System: AMES SALMONELLA TYPHIMURIUM, Strain/Indicator: TA100, Metabolic Activation: RAT, LIVER, S-9, PHENOBARBITAL, Method: STANDARD PLATE): active; positive
mutagenic call (Test System: UDS RAT HEPATOCYTES, Strain/Indicator: THY INCORP, Metabolic Activation: NONE, Method: AUTORADIOGRAPHY): inactive; negative

Nc1cc2ccccc2c2ccccc12
mutagenic call (Test System: AMES SALMONELLA TYPHIMURIUM, Strain/Indicator: TA98, Metabolic Activation: RAT, LIVER, S-9, AROCLOR 1254 (2 OR 4%), Method: STANDARD PLATE): active; positive
mutagenic call (Test System: AMES SALMONELLA TYPHIMURIUM, Strain/Indicator: TA100, Metabolic Activation: RAT, LIVER, S-9, AROCLOR 1254 (4%), Method: STANDARD PLATE): active; positive
mutagenic call (Test System: AMES SALMONELLA TYPHIMURIUM, Strain/Indicator: TA1535, Metabolic Activation: RAT, LIVER, S-9, AROCLOR 1254 (4%), Method: STANDARD PLATE): active; positive
mutagenic call (Test System: AMES SALMONELLA TYPHIMURIUM, Strain/Indicator: TA1537, Metabolic Activation: RAT, LIVER, S-9, AROCLOR 1254 (4%), Method: STANDARD PLATE): active; positive

CC1(C)SSC[C@@H](C(=O)O)NC1=O
mutagenic call [4]: inactive; negative
mutagenic call [5]: inactive; negative
mutagenic call [6]: inactive; negative
mutagenic call (Test System: AMES SALMONELLA TYPHIMURIUM, Strain/Indicator: TA1537, Metabolic Activation: NONE, Method: PREINCUBATION): inactive; negative
mutagenic call (Test System: AMES SALMONELLA TYPHIMURIUM, Strain/Indicator: TA1538, Metabolic Activation: NONE, Method: PREINCUBATION): inactive; negative
mutagenic call (Test System: E. COLI, Strain/Indicator: WP2, Metabolic Activation: NONE, Method: PREINCUBATION): inactive; negative
mutagenic call (Test System: E. COLI, Strain/Indicator: WP2 UVRA, Metabolic Activation: NONE, Method: PREINCUBATION): inactive; negative

CCCCOc1ccc2nc3cc(Cl)ccc3c(NCCCNCCCl)c2n1
mutagenic call [2]: active; positive
mutagenic call [3]: inactive; negative
mutagenic call (Test System: AMES SALMONELLA TYPHIMURIUM, Strain/Indicator: TA1535, Metabolic Activation: NONE, Method: STANDARD PLATE): inactive; negative
mutagenic call (Test System: AMES SALMONELLA TYPHIMURIUM, Strain/Indicator: TA1536, Metabolic Activation: NONE, Method: STANDARD PLATE): active; positive
mutagenic call (Test System: AMES SALMONELLA TYPHIMURIUM, Strain/Indicator: TA1537, Metabolic Activation: NONE, Method: STANDARD PLATE): active; positive
mutagenic call (Test System: AMES SALMONELLA TYPHIMURIUM, Strain/Indicator: TA1538, Metabolic Activation: NONE, Method: STANDARD PLATE): active; positive

BrCc1cc2c3c(cccc3c1)-c1ccccc1-2
mutagenic call [2]: active; positive
mutagenic call [3]: active; positive

C1=Cc2c3ccccc3cc3cc4ccccc4c1c23
mutagenic call [2]: active; positive
mutagenic call (Test System: AMES SALMONELLA TYPHIMURIUM, Strain/Indicator: TA98, Metabolic Activation: RAT, LIVER, S-9, AROCLOR 1254 (0.127 OR 1.27 MG S-9 PROTEIN), Method: STANDARD PLATE): active; positive

O=[C]/C=C\C(=O)CC(=O)CC(=O)O
mutagenic call (Test System: CHINESE HAMSTER V-79, Strain/Indicator: V-79 (HGPRT)/6-THIOGUANINE, Metabolic Activation: NONE): inactive; negative

Cc1ccc2ccc([N+](=O)[O-])cc2c1
mutagenic call [4]: active; positive

Fc1ccc2ncccc2c1F
mutagenic call (Test System: AMES SALMONELLA TYPHIMURIUM, Strain/Indicator: TA100, Metabolic Activation: RAT LIVER S-9, PHENOBARBITAL AND 5,6-BENZOFLAVONE, Method: PREINCUBATION): active; positive

BrCc1ccc2c3c(cccc13)-c1ccccc1-2
mutagenic call [2]: active; positive
mutagenic call [3]: active; positive

CC#CC(OC(=O)NC1CCCCC1)(c1ccccc1)c1ccccc1
mutagenic call [3]: active; positive

CC(O)c1ccc2ccc3cccc4ccc1c2c34 (stereo not given)
mutagenic call (Test System: AMES SALMONELLA TYPHIMURIUM, Strain/Indicator: TA98, Metabolic Activation: HUMAN, LIVER, CYTOSOL, PAPS, Method: PREINCUBATION): active; positive

[Br][Pb][Br]
mutagenic call (Test System: AMES SALMONELLA TYPHIMURIUM, Strain/Indicator: TA1535, Metabolic Activation: NONE): active; positive
mutagenic call (Test System: AMES SALMONELLA TYPHIMURIUM, Strain/Indicator: TA1537, Metabolic Activation: NONE): inactive; negative

c1ccc(COCc2ccccc2)cc1
mutagenic call (Test System: AMES SALMONELLA TYPHIMURIUM, Strain/Indicator: TA97, Metabolic Activation: HAMSTER, LIVER, S-9, AROCLOR 1254 (10 OR 30%), Method: PREINCUBATION): inactive; negative
mutagenic call (Test System: AMES SALMONELLA TYPHIMURIUM, Strain/Indicator: TA97, Metabolic Activation: NONE, Method: PREINCUBATION): inactive; negative
mutagenic call (Test System: AMES SALMONELLA TYPHIMURIUM, Strain/Indicator: TA97, Metabolic Activation: RAT, LIVER, S-9, AROCLOR 1254 (10 OR 30%), Method: PREINCUBATION): inactive; negative
mutagenic call (Test System: AMES SALMONELLA TYPHIMURIUM, Strain/Indicator: TA98, Metabolic Activation: HAMSTER, LIVER, S-9, AROCLOR 1254 (10 OR 30%), Method: PREINCUBATION): inactive; negative
mutagenic call [4]: inactive; negative
mutagenic call (Test System: AMES SALMONELLA TYPHIMURIUM, Strain/Indicator: TA98, Metabolic Activation: RAT, LIVER, S-9, AROCLOR 1254 (10 OR 30%), Method: PREINCUBATION): inactive; negative
mutagenic call (Test System: AMES SALMONELLA TYPHIMURIUM, Strain/Indicator: TA98, Metabolic Activation: RAT, LIVER, S-9, AROCLOR 1254 (30%), Method: PREINCUBATION): inactive; negative
mutagenic call (Test System: AMES SALMONELLA TYPHIMURIUM, Strain/Indicator: TA100, Metabolic Activation: HAMSTER, LIVER, S-9, AROCLOR 1254 (10%), Method: PREINCUBATION): inactive; negative
mutagenic call (Test System: AMES SALMONELLA TYPHIMURIUM, Strain/Indicator: TA100, Metabolic Activation: HAMSTER, LIVER, S-9, AROCLOR 1254 (30%), Method: PREINCUBATION): inactive; negative
mutagenic call [5]: inactive; negative
mutagenic call (Test System: AMES SALMONELLA TYPHIMURIUM, Strain/Indicator: TA100, Metabolic Activation: RAT, LIVER, S-9, AROCLOR 1254 (10%), Method: PREINCUBATION): inactive; negative
mutagenic call (Test System: AMES SALMONELLA TYPHIMURIUM, Strain/Indicator: TA100, Metabolic Activation: RAT, LIVER, S-9, AROCLOR 1254 (30%), Method: PREINCUBATION): inactive; negative
mutagenic call (Test System: AMES SALMONELLA TYPHIMURIUM, Strain/Indicator: TA1535, Metabolic Activation: HAMSTER, LIVER, S-9, AROCLOR 1254 (10 OR 30%), Method: PREINCUBATION): inactive; negative
mutagenic call [6]: inactive; negative
mutagenic call (Test System: AMES SALMONELLA TYPHIMURIUM, Strain/Indicator: TA1535, Metabolic Activation: RAT, LIVER, S-9, AROCLOR 1254 (10 OR 30%), Method: PREINCUBATION): inactive; negative
